# Measurements published in US20250041300A1, “PHARMACEUTICAL COMBINATION COMPRISING ABEMACICLIB AND A PI3K AND/OR A MTOR INHIBITOR FOR THE TREATMENT OF MANTLE CELL LYMPHOMA” (Board of Regents, The University of Texas System, priority 2021, published 2025).
# pIC50: −log10 of the molar value.
# What was measured:
# PI3Kδ = PI3Kδ (Homo sapiens, UniProt O00329); settings: cited from earlier work
# mTOR = mTOR (Homo sapiens, UniProt P42345); settings: cited from earlier work
# PI3Kγ = PI3Kγ (Homo sapiens, UniProt P48736); settings: cited from earlier work
# Chain of PI3Kγ (P48736 whole entry): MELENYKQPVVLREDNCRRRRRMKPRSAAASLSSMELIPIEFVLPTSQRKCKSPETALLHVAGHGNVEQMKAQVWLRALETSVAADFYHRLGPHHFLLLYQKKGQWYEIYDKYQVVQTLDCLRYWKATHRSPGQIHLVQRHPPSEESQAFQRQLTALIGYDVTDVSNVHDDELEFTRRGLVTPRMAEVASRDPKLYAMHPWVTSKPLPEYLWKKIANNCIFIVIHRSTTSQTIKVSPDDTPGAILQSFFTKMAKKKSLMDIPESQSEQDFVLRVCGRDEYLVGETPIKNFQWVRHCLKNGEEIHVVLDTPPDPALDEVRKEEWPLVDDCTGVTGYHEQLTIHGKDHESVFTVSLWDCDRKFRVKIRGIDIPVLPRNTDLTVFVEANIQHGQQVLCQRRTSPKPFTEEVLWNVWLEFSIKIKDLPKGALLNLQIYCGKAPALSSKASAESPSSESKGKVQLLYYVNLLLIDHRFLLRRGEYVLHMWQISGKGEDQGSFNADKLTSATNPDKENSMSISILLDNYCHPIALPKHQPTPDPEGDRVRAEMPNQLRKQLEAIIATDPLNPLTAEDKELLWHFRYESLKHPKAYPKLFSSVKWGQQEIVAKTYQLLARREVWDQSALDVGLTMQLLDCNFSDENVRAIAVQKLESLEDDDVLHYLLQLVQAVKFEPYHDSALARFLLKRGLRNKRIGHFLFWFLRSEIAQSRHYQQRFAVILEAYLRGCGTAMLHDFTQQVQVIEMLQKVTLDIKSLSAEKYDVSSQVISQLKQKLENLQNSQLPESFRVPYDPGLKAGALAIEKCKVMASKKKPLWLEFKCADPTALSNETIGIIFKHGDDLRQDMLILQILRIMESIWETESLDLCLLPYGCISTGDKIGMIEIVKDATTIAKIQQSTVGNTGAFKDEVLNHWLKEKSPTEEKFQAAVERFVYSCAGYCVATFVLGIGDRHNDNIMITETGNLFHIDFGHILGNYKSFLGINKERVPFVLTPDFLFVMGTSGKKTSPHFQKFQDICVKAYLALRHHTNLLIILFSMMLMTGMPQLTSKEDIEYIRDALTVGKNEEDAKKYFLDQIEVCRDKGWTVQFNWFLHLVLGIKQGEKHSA
# PI3Kβ = PI3Kβ (Homo sapiens, UniProt P42338); settings: cited from earlier work
# Chain of PI3Kβ (P42338 whole entry): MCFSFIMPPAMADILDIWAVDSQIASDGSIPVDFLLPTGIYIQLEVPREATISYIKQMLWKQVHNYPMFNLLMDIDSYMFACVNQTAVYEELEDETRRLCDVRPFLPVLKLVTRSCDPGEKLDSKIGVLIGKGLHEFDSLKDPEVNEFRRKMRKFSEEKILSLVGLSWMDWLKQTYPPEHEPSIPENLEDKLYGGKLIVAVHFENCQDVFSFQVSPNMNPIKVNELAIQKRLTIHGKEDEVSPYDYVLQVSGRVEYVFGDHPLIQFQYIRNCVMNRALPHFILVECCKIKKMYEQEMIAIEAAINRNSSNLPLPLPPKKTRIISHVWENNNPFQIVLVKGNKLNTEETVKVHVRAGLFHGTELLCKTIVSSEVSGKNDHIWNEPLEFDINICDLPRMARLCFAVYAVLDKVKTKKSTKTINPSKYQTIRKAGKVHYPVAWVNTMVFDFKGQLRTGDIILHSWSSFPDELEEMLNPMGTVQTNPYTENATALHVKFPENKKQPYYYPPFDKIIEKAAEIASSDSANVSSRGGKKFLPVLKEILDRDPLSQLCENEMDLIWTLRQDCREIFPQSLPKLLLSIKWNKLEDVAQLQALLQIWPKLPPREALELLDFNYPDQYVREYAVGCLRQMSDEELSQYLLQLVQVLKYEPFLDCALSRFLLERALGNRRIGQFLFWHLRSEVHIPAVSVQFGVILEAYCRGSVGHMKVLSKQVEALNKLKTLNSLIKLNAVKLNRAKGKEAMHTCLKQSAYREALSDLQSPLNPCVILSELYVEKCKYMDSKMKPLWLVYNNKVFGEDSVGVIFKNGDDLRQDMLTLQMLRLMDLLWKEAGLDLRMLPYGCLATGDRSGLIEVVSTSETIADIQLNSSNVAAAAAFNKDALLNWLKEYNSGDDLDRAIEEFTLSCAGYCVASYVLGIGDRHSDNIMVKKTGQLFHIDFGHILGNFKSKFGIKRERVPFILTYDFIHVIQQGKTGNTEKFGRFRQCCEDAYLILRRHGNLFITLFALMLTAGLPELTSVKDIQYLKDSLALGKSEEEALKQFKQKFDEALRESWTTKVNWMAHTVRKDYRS
# Chain of PI3Kβ (P27986 whole entry partner): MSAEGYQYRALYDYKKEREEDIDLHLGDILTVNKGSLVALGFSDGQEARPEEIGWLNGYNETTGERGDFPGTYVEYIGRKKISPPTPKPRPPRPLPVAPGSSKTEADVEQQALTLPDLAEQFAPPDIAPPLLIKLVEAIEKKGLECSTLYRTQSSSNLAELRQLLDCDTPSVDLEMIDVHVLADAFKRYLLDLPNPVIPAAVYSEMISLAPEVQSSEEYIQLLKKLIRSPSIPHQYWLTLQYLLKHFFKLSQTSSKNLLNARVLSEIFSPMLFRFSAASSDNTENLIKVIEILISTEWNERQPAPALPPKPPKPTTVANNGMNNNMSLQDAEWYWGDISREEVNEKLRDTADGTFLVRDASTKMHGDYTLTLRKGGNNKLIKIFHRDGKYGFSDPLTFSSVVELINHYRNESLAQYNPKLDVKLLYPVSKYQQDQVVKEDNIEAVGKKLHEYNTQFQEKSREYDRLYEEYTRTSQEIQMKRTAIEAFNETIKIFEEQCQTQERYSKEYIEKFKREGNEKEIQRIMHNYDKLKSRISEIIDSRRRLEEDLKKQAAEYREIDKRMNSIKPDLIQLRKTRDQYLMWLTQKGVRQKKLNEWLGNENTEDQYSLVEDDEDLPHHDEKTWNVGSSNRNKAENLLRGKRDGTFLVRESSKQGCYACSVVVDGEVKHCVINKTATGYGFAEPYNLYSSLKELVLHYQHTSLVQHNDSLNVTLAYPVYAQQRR
# PI3Kα = PI3Kα (Homo sapiens, UniProt P42336); settings: cited from earlier work
# Chain of PI3Kα (P42336 whole entry): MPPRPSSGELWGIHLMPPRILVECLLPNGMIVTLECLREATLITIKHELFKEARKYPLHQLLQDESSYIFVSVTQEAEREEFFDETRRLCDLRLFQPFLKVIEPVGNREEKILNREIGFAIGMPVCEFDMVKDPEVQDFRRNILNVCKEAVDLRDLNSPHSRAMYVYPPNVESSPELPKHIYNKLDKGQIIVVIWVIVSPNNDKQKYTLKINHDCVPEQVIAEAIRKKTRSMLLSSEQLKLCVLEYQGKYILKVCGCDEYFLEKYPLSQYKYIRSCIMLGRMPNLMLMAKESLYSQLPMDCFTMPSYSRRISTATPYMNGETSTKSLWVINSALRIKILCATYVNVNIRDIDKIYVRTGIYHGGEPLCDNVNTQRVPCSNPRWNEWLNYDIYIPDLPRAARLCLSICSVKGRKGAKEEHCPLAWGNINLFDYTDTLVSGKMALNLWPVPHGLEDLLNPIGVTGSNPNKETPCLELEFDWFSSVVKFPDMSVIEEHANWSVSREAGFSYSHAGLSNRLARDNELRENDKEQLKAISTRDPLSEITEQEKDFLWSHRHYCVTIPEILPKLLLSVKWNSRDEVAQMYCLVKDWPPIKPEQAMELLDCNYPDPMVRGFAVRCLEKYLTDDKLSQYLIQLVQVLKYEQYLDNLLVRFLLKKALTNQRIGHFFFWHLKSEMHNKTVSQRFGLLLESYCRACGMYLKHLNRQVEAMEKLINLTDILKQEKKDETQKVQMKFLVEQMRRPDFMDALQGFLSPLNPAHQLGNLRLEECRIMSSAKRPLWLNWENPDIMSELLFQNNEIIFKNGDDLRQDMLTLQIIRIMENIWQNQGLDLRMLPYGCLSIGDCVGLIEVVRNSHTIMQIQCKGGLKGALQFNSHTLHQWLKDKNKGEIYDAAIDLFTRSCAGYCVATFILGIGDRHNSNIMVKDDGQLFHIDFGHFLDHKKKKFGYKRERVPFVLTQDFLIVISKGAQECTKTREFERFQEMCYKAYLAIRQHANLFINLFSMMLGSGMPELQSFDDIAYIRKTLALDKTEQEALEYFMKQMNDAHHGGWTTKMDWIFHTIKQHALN
# Chain of PI3Kα (P27986 whole entry partner): as the sequence (P27986 whole entry partner) above
# class I PI3Ks = settings: cited from earlier work
# mTORC1/2 = mTORC1/2 (Homo sapiens, UniProt P42345); settings: in words; cited from earlier work
# Mino-ven-R cells = experiment: CellTiter-Glo Luminescent Cell viability Assay, abemaciclib single agent; type: cell-based; settings: 72h, acquired venetoclax resistance
# Procedure: (§1) IC50 values were calculated using GraphPad Prism 8 for each cell line. Student's t-test was performed to compare the difference between vehicle and treated groups. Two-way analysis of variance (ANOVA) was conducted to analyze the tumor growth in vivo experiments. P values less than 0.05 were considered statistically significant.
# [1] = tested on: MCL cell lines (Mino, Rec-1, Maver-1, Z138, JeKo-1); experiment: as above; type: cell-based; settings: 72h; range over venetoclax sensitive (Mino, Rec-1, Maver-1, Z138) and primary resistant (JeKo-1) MCL cells
# Procedure: as §1
# Rec-ven-R cells = experiment: as above; type: cell-based; settings: 72h, acquired venetoclax resistance
# Procedure: as §1
# Chain of PI3Kδ (O00329 whole entry): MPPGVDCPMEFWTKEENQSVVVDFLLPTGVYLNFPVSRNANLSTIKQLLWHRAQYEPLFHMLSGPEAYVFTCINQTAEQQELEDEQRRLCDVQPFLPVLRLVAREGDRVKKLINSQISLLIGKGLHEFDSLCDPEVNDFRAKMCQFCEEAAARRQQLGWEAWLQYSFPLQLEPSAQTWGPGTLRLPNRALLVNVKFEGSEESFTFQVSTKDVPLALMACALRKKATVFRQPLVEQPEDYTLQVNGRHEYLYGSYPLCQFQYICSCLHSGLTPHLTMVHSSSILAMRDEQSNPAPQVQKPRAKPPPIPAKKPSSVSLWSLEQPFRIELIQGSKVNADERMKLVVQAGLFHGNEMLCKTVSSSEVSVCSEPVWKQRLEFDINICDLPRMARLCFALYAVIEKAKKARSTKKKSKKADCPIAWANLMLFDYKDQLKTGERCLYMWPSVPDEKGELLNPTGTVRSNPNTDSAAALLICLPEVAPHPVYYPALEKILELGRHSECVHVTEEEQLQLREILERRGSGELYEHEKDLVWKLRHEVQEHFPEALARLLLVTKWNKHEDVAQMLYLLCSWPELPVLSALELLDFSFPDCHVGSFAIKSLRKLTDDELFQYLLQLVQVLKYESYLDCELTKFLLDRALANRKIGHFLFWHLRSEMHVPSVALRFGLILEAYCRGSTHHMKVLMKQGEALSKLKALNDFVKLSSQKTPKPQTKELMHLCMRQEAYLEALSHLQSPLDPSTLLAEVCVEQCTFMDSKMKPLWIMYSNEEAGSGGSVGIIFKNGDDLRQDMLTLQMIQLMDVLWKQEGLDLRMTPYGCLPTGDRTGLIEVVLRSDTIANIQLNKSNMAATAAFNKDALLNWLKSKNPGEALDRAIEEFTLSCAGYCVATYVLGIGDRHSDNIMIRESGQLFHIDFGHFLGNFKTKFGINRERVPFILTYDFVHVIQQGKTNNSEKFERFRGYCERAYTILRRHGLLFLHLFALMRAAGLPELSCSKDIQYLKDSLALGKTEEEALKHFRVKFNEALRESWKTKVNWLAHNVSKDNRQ
# Chain of PI3Kδ (P27986 whole entry partner): as the sequence (P27986 whole entry partner) above
Compound,IC50 against PI3Kδ (order of magnitude in words) (PI3Kδ),IC50 against mTOR (order of magnitude in words) (mTOR),IC50 against PI3Kγ (order of magnitude in words) (PI3Kγ),IC50 against PI3Kα (order of magnitude in words) (PI3Kα),also measured
"C[C@@H](Nc1cc(F)cc(F)c1)c1cc(C(=O)N(C)C)cc2c(=O)cc(N3CCOCC3)oc12 [AZD8186, 8-[(1R)-1-(3,5-difluoroanilino)ethyl]-N,N-dimethyl-2-morpholin-4-yl-4-oxochromene-6-carboxamide]",nanomolar,–,–,–,–
"C[C@H](Nc1ncnc2nc[nH]c12)c1nc2ccc(F)cc2c(=O)n1-c1ccccc1 [Acalisib, 6-fluoro-3-phenyl-2-[(1S)-1-(7H-purin-6-ylamino)ethyl]quinazolin-4-one]",nanomolar,–,–,–,–
"Cc1c(CN2CCN(C(=O)[C@H](C)O)CC2)sc2c(N3CCOCC3)nc(-c3cnc(N)nc3)nc12 [Apitolisib, (2S)-1-[4-[[2-(2-aminopyrimidin-5-yl)-7-methyl-4-morpholin-4-ylthieno[3,2-d]pyrimidin-6-yl]methyl]piperazin-1-yl]-2-hydroxypropan-1-one]",–,nanomolar,–,–,–
"COc1ccc(-c2ccc3ncc4c(c3c2)n(-c2ccc(N3CCNCC3)c(C(F)(F)F)c2)c(=O)n4C)cn1 [BGT-226, 8-(6-methoxypyridin-3-yl)-3-methyl-1-[4-piperazin-1-yl-3-(trifluoromethyl)phenyl]imidazo[4,5-c]quinolin-2-one]",nanomolar,nanomolar,nanomolar,nanomolar,IC50 against PI3Kβ (order of magnitude in words) (PI3Kβ): nanomolar
"CS(=O)(=O)N1CCc2c(-c3cnc(N)nc3)nc(N3CCOCC3)nc21 [CH5132799, 5-(7-(methylsulfonyl)-2-morpholino-6,7-dihydro-5H-pyrrolo[2,3-d]pyrimidin-4-yl)pyrimidin-2-amine]",–,–,–,–,IC50 against class I PI3Ks (order of magnitude in words) (class I PI3Ks): nanomolar
"COc1cccc2cc(-c3nc([C@H]4CC[C@H](C(=O)O)CC4)n4ncnc(N)c34)[nH]c12 [OSI-027, 4-[4-amino-5-(7-methoxy-1H-indol-2-yl)imidazo[5,1-f][1,2,4]triazin-7-yl]cyclohexane-1-carboxylic acid]",–,nanomolar,–,–,–
"COc1ncc(-c2ccc3nccc(-c4ccnnc4)c3c2)cc1NS(=O)(=O)c1ccc(F)cc1F [Omipalisib, 2,4-difluoro-N-[2-methoxy-5-(4-pyridazin-4-ylquinolin-6-yl)pyridin-3-yl]benzenesulfonamide]",–,–,nanomolar,–,–
"O=C(Nc1ccncc1)Nc1ccc(-c2nc(N3CCOCC3)nc(N3C4CCC3COC4)n2)cc1 [PKI-179, 1-[4-[4-morpholin-4-yl-6-(3-oxa-8-azabicyclo[3.2.1]octan-8-yl)-1,3,5-triazin-2-yl]phenyl]-3-pyridin-4-ylurea]",nanomolar,nanomolar,nanomolar,nanomolar,IC50 against PI3Kβ (order of magnitude in words) (PI3Kβ): nanomolar
"CCOc1c([C@H](C)n2nc(C)c3c(N)ncnc32)cc(Cl)c(F)c1[C@@H]1CNC(=O)C1 [Parsaclisib, (4R)-4-[3-[(1S)-1-(4-amino-3-methylpyrazolo[3,4-d]pyrimidin-1-yl)ethyl]-5-chloro-2-ethoxy-6-fluorophenyl]pyrrolidin-2-one]",nanomolar,–,–,–,–
"COc1ccc(Cl)c(Nc2nc3ccccc3nc2NS(=O)(=O)c2cccc(NC(=O)C(C)(C)N)c2)c1 [Pilaralisib, 2-amino-N-[3-[[3-(2-chloro-5-methoxyanilino)quinoxalin-2-yl]sulfamoyl]phenyl]-2-methylpropanamide]",nanomolar,–,nanomolar,nanomolar,IC50 against PI3Kβ (order of magnitude in words) (PI3Kβ): nanomolar
"CO[C@@H](C)Cn1c(=O)n(C)c2cnc3ccc(-c4cncc(C(C)(C)O)c4)cc3c21 [Samotolisib, 8-[5-(2-hydroxypropan-2-yl)pyridin-3-yl]-1-[(2S)-2-methoxypropyl]-3-methylimidazo[4,5-c]quinolin-2-one]",–,–,–,–,concentrations at which mTORC1/2 is inhibited (mTORC1/2): low nanomolar concentrations
"Nc1nc2cc(-c3ccc4ncc(C(=O)N5CCOCC5)n4c3)ccc2o1 [Serabelisib, [6-(2-amino-1,3-benzoxazol-5-yl)imidazo[1,2-a]pyridin-3-yl]-morpholin-4-ylmethanone]",–,–,–,nanomolar,–
"C=CCN(/C=C1/C(=O)O[C@H](COC)[C@@]2(C)C1=C(O)C(=O)C1=C2[C@H](OC(C)=O)C[C@]2(C)C(=O)CC[C@@H]12)CC=C [Sonolisib, [(3αR,6E,9S,9αR,10R,11αS)-6-[bis(prop-2-enyl)aminomethylidene]-5-hydroxy-9-(methoxymethyl)-9α,11α-dimethyl-1,4,7-trioxo-2,3,3a,9,10,11-hexahydroindeno[4,5-h]isochromen-10-yl]acetate]",nanomolar,–,nanomolar,nanomolar,–
"Cc1nc(-c2cn3c(n2)-c2ccc(-c4cnn(C(C)(C)C(N)=O)c4)cc2OCC3)n(C(C)C)n1 [Taselisib, 2-methyl-2-[4-[2-(5-methyl-2-propan-2-yl-1,2,4-triazol-3-yl)-5,6-dihydroimidazo[1,2-d][1,4]benzoxazepin-9-yl]pyrazol-1-yl]propanamide]",–,–,nanomolar,–,IC50 against PI3Kβ (order of magnitude in words) (PI3Kβ): nanomolar
"CO[C@H]1C[C@@H]2CC[C@@H](C)[C@@](O)(O2)C(=O)C(=O)N2CCCC[C@H]2C(=O)O[C@H]([C@H](C)C[C@@H]2CC[C@@H](OC(=O)C(C)(CO)CO)[C@H](OC)C2)CC(=O)[C@H](C)/C=C(\C)[C@@H](O)[C@@H](OC)C(=O)[C@H](C)C[C@H](C)/C=C/C=C/C=C/1C [Temsirolimus, [(1R,2R,4S)-4-[(2R)-2-[(1R,9S, 12S, 15R, 16E,18R, 19R,21R,23S,24E,26E,28E,30S,32S,35R)-1,18-dihydroxy-19,30-dimethoxy-15,17,21,23,29,35-hexamethyl-2,3,10, 14,20-pentaoxo-11,36-dioxa-4-azatricyclo[30.3.1.04,9]hexatriaconta-16,24,26,28-tetraen-12-yl]propyl]-2-methoxycyclohexyl]3-hydroxy-2-(hydroxymethyl)-2-methylpropanoate]",–,micromolar,–,–,–
"CC[C@H](Nc1ncnc2[nH]cnc12)c1oc2ccccc2c(=O)c1-c1cccc(F)c1 [Tenalisib, 3-(3-fluorophenyl)-2-[(1S)-1-(7H-purin-6-ylamino)propyl]chromen-4-one]",nanomolar,–,nanomolar,–,–
"CCn1c(=O)c(-c2ccn[nH]2)cc2c(C)nc(N)nc21 [Voxtalisib, 2-amino-8-ethyl-4-methyl-6-(1H-pyrazol-5-yl)pyrido[2,3-d]pyrimidin-7-one]",nanomolar,nanomolar,nanomolar,nanomolar,IC50 against PI3Kβ (order of magnitude in words) (PI3Kβ): nanomolar
"CN1CCC(c2ccccc2CC(C)(C)Nc2nc(N3CCOCC3)nc(-n3c(C(F)F)nc4ccccc43)n2)CC1 [Zandelisib, 4-[2-(difluoromethyl)benzimidazol-1-yl]-N-[2-methyl-1-[2-(1-methylpiperidin-4-yl)phenyl]propan-2-yl]-6-morpholin-4-yl-1,3,5-triazin-2-amine]",nanomolar,–,–,–,–
CCN1CCN(Cc2ccc(Nc3ncc(F)c(-c4cc(F)c5nc(C)n(C(C)C)c5c4)n3)nc2)CC1 [abemaciclib],–,–,–,–,pIC50 (Mino-ven-R cells): 5.22; pIC50 [1]: 6.02 to 7.15; pIC50 (Rec-ven-R cells): 5.36
